Laboratory results as given in patent US8993585B2, “Cyclic amine substituted pyrimidinediamines as PKC inhibitors” (Rigel Pharmaceuticals, Inc., priority 2007, dated 2015).

test system: Human primary T cells; test: IL-2 ELISA, Human Primary T Cell, Anti-CD3+CD28+ (Example 3); type: cell-based; details: Homo sapiens, T-cell, 24 h, anti-CD3+CD28 stimulation
How it was run: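 Human primary T cells, 100,000 per well, were pre-incubated with compound in Yssel's medium for 1 h at 37 °C. The counter-assay used 0.5 ng/ml PMA with 0.1 uM ionomycin final.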

Row | IC50 [nM] | Compound
1 | 990 | CN1C(C)(C)CC(Nc2nc(Nc3nc4ccc(F)cc4s3)ncc2F)CC1(C)C [II-131]
2 | 170 | COc1cc(Nc2ncc(F)c(NC3CC(C)(C)N(C)C(C)(C)C3)n2)cc(OCCn2cccc2)c1 [Compound I-437]
3 | 5610 | CCN1CCc2cc(Nc3ncc(F)c(NC4CC(C)(C)N(C)C(C)(C)C4)n3)ccc21 [II-52]
4 | 1770 | Cc1ccc(C)n1-c1cc(Nc2ncc(F)c(NC3CC(C)(C)NC(C)(C)C3)n2)ccc1OCCN1CCCC1 [Compound I-442]
5 | 148 | CCCN1C(=O)COc2cc(Nc3ncc(F)c(NC4CC(C)(C)N(C)C(C)(C)C4)n3)ccc21 [II-59]
6 | 11100 | Cc1nc2cc(Nc3ncc(F)c(NC4CC(C)(C)N(C)C(C)(C)C4)n3)ccc2o1 [II-30]
7 | 2120 | CCOc1ccc2nc(Nc3ncc(F)c(NC4CC(C)(C)N(C)C(C)(C)C4)n3)sc2c1 [II-18]
8 | 22300 | COC(=O)CCN1C(C)(C)CC(Nc2nc(Nc3ccc(OC)c(OC)c3)ncc2F)CC1(C)C [Compound I-291]
9 | 4710 | COc1cc(Nc2ncc(F)c(N(Cc3cc4c(cc3Br)OCO4)C3CC(C)(C)N(C)C(C)(C)C3)n2)cc(OC)c1 [Compound I-323]
10 | 147 | CCN1C(=O)C(C)(C)Oc2cc(Nc3ncc(C#N)c(NC4CC(C)(C)NC(C)(C)C4)n3)ccc21 [II-57]
11 | 660 | CN1C(C)(C)CC(Nc2nc(Nc3ccc(-c4ccc(N5CCOCC5)nc4)c(C#N)c3)ncc2F)CC1(C)C [Compound I-427]
12 | 951 | CN1C(=O)C(F)(F)Oc2cc(Nc3ncc(F)c(NC4CC(C)(C)N(C)C(C)(C)C4)n3)cnc21 [II-26]
13 | 1640 | CN1C(C)(C)CC(Nc2nc(Nc3nc4ccccc4s3)ncc2F)CC1(C)C [II-16]
14 | 910 | CN1C(C)(C)CC(Nc2nc(Nc3nc(-c4cccnc4)cs3)ncc2F)CC1(C)C [II-136]
15 | 560 | CN(C)c1ccc(-c2ccc(Nc3ncc(F)c(NC4CC(C)(C)NC(C)(C)C4)n3)cc2C#N)cn1 [Compound I-428]
16 | 1370 | CN1C(C)(C)CC(Nc2nc(Nc3ccc4c(c3)OC(F)(F)O4)ncc2F)CC1(C)C [II-37]
17 | 806 | CN1C(C)(C)CC(Nc2ccnc(Nc3cccc(C#N)c3)n2)CC1(C)C [Compound I-227]
18 | 7240 | COC(=O)CCN1C(C)(C)CC(Nc2nc(Nc3ccc4c(c3)OCCO4)ncc2F)CC1(C)C [II-10]
19 | 199 | CN1C(C)(C)CC(Nc2nc(Nc3ccc4c(c3)OC(C)(C)C(=O)N4CCF)ncc2F)CC1(C)C [II-80]
20 | 450 | COc1cc(Nc2ncc(F)c(NC3CC(C)(C)N(C)C(C)(C)C3)n2)cc(OCCN2CCOCC2)c1 [Compound I-431]
21 | 231 | CCN1C(=O)COc2cc(Nc3ncc(F)c(NC4CC(C)(C)N(C)C(C)(C)C4)n3)ccc21 [II-58]
22 | 3130 | Cc1cnc(Nc2ccc3c(c2)OCCO3)nc1NC1CC(C)(C)N(C)C(C)(C)C1 [II-146]
23 | 3140 | COc1cc(Nc2nc(C)cc(NC3CC(C)(C)N(C)C(C)(C)C3)n2)cc(OC)c1 [IV-2]
24 | 450 | CN1C(C)(C)CC(Nc2nc(Nc3ccc4c(c3)OCCO4)ncc2Br)CC1(C)C [II-127]
25 | 291 | CN1C(C)(C)CC(Nc2nc(Nc3ccc4c(c3)OCC(=O)N4CCF)ncc2F)CC1(C)C [II-82]
26 | 4740 | CC(C)N1CCc2cc(Nc3ncc(F)c(NC4CC(C)(C)N(C)C(C)(C)C4)n3)ccc21 [II-53]
27 | 25100 | COc1cc(Nc2ncc(F)c(NC3CC(C)(C)N(CCC(=O)O)C(C)(C)C3)n2)cc(OC)c1 [Compound I-302]
28 | 258 | CCN1C(=O)C(C)(C)Oc2cc(Nc3ncc(F)c(NC4CC(C)(C)N(C)C(C)(C)C4)n3)cnc21 [II-55]

Row | Compound | IC50 [nM]
29 | Cc1ccc(Nc2ncc(F)c(N(Cc3ccc4ccccc4c3)C3CC(C)(C)N(C)C(C)(C)C3)n2)cc1C#N [Compound I-315] | 3390
30 | Cc1ccc(Nc2ncc(F)c(N(Cc3ccccc3)C3CC(C)(C)N(C)C(C)(C)C3)n2)cc1C#N [Compound I-313] | 793

same assay, conditions: T-cell, anti-CD3+CD28 stimulation, 24 hours

Row | Compound | IC50 [nM]
31 | CCN1C(=O)C(C)(C)Oc2cc(Nc3ncc(C#C[Si](C)(C)C)c(NC4CC(C)(C)N(C)C(C)(C)C4)n3)ccc21 [II-151] | 1250
32 | CN1C(C)(C)CC(Nc2nc(Nc3ccc4c(c3)OCCO4)ncc2C#C[Si](C)(C)C)CC1(C)C [II-150] | 3580

same assay, conditions: anti-CD3+CD28 stimulation, 24 hours

Row | IC50 [nM] | Compound
33 | 2690 | COc1cc(Nc2ncc(F)c(NC3CC(C)(C)N(C)C(C)(C)C3)n2)ccc1-n1nnnc1C [Compound I-407]
34 | 445 | CC(=O)N1CCN(c2cc(Nc3ncc(F)c(NC4CC(C)(C)N(C)C(C)(C)C4)n3)ccc2C(F)(F)F)CC1 [Compound I-212]
35 | 164 | CCN1C(=O)C2(CCC2)Oc2cc(Nc3ncc(F)c(NC4CC(C)(C)N(C)C(C)(C)C4)n3)ccc21 [II-69]
36 | 100 | CCCc1nnnn1-c1cc(Nc2ncc(F)c(NC3CC(C)(C)N(C)C(C)(C)C3)n2)ccc1OC [Compound I-395]
37 | 19500 | COc1cc(C)c(Nc2ncc(F)c(NC3CC(C)(C)N(C)C(C)(C)C3)n2)cc1OC [Compound I-380]
38 | 706 | CN1C(C)(C)CC(Nc2nc(Nc3ccc(OC(F)(F)F)c(-c4ccoc4)c3)ncc2F)CC1(C)C [Compound I-209]
39 | 315 | COc1ccc(Nc2ncc(F)c(NC3CC(C)(C)N(C)C(C)(C)C3)n2)cc1OC(F)(F)F [Compound I-343]
40 | 2590 | CN1C(C)(C)CC(Nc2nc(Nc3ccc(N4CCNCC4)c(Cl)c3)ncc2[N+](=O)[O-])CC1(C)C [Compound I-77]
41 | 2390 | Cc1nccc(-c2cccc(Nc3ncc(F)c(NC4CC(C)(C)N(C)C(C)(C)C4)n3)c2)n1 [Compound I-69]
42 | 669 | CN1C(C)(C)CC(Nc2nc(Nc3ccc(-n4cccc4)c(C#N)c3)ncc2C(F)(F)F)CC1(C)C [Compound I-172]
43 | 2290 | COc1ccc(Nc2ncc(F)c(NC3CC(C)(C)N(C)C(C)(C)C3)n2)cc1-c1cnn(C)c1 [Compound I-184]
44 | 1150 | CN1C(C)(C)CC(Nc2nc(Nc3ccc(Br)cc3)ncc2F)CC1(C)C [Compound I-108]
45 | 876 | CCc1cc(Nc2ncc(F)c(NC3CC(C)(C)N(C)C(C)(C)C3)n2)cc(C#N)c1Cl [Compound I-128]
46 | 4630 | COc1ccc(Nc2ncc(F)c(NC3CC(C)(C)N(C)C(C)(C)C3)n2)cc1OCCN(C)C [Compound I-421]
47 | 665 | CN1C(C)(C)CC(Nc2nc(Nc3ccc(N4CCN(S(C)(=O)=O)CC4)c(Cl)c3)ncc2[N+](=O)[O-])CC1(C)C [Compound I-73]
48 | 901 | COc1ccc(Nc2ncc(F)c(NC3CC(C)(C)N(C)C(C)(C)C3)n2)cc1-c1ccoc1 [Compound I-183]
49 | 3150 | CCNC(=O)Nc1cccc(Nc2ncc(F)c(NC3CC(C)(C)N(C)C(C)(C)C3)n2)c1 [Compound I-138]
50 | 963 | Cc1cc(C)cc(Nc2ncc(C)c(NC3CC(C)(C)N(C)C(C)(C)C3)n2)c1 [Compound I-17]

Row | IC50 [nM] | Compound
51 | 5420 | COc1cc(Nc2ncc(C(N)=O)c(NC3CC(C)(C)NC(C)(C)C3)n2)cc(-n2cnnn2)c1 [Compound I-389]
52 | 1090 | CN1C(C)(C)CC(Nc2nc(Nc3ccc(C(=O)NC4CC4)c(C(F)(F)F)c3)ncc2F)CC1(C)C [Compound I-230]
53 | 360 | CN1C(C)(C)CC(Nc2nc(Nc3ccc(Oc4ncccn4)c(Cl)c3)ncc2F)CC1(C)C [Compound I-338]
54 | 849 | CN1C(=O)C(C)(C)S(=O)(=O)c2cc(Nc3ncc(F)c(NC4CC(C)(C)N(C)C(C)(C)C4)n3)ccc21 [II-64]
55 | 951 | COC(=O)/C=C/N1C(C)(C)CC(Nc2nc(Nc3ccc(OC)c(C(F)(F)F)c3)ncc2F)CC1(C)C [Compound I-301]
56 | 1230 | Cc1csc(-c2ccc(Nc3ncc(F)c(NC4CC(C)(C)N(C)C(C)(C)C4)n3)cc2C(F)(F)F)c1 [Compound I-116]
57 | 92.1 | COc1cc(Nc2ncc(F)c(NC3CC(C)(C)NC(C)(C)C3)n2)cc(-n2nnnc2C)c1 [Compound I-372]
58 | 3040 | CN1C(C)(C)CC(Nc2nc(Nc3cccc(OC(F)(F)F)c3)ncc2F)C1(C)C (stereo not drawn) [Compound I-284, 5-Fluoro-N2-(3-trifluoromethoxy)phenyl-N4-(1,2,2,5,5-pentamethylpyrrolidin-3-yl)-2,4-pyrimidinediamine]
59 | 596 | CN1CCN(c2ccc(Nc3ncc([N+](=O)[O-])c(NC4CC(C)(C)N(C)C(C)(C)C4)n3)cc2Cl)CC1 [Compound I-76]
60 | 31700 | COc1ccc(Nc2ncc(F)c(NC3CCC(C)(C)N(C)C(C)(C)C3)n2)cc1C(F)(F)F (stereo not drawn) [Compound I-268, 5-Fluoro-N2-[4-methoxy-3-trifluoromethyl]phenyl-N4-(1,2,2,7,7-pentamethylazepan-4-yl)-2,4-pyrimidinediamine]
61 | 4360 | CCNC(=O)Nc1ccc(Nc2ncc(F)c(NC3CC(C)(C)N(C)C(C)(C)C3)n2)cc1 [Compound I-149]
62 | 928 | CN1C(C)(C)CC(Nc2nc(Nc3ccc(N4CCN(S(C)(=O)=O)CC4)c(C(F)(F)F)c3)ncc2[N+](=O)[O-])CC1(C)C [Compound I-78]
63 | 284 | CC(=O)N1CCN(c2ccc(Nc3ncc(F)c(NC4CC(C)(C)N(C)C(C)(C)C4)n3)cc2C(F)(F)F)CC1 [Compound I-49]
64 | 680 | Cc1ccc(Nc2ncc(C(F)(F)F)c(NC3CC(C)(C)N(C)C(C)(C)C3)n2)cc1C#N [Compound I-171]
65 | 5100 | COC(=O)CCN1C(C)(C)CC(Nc2nc(Nc3ccc(OC)c(C(F)(F)F)c3)ncc2F)CC1(C)C [Compound I-295]
66 | 220 | CC1(C)CC(Nc2nc(Nc3cccc(-n4cnnn4)c3)ncc2F)CC(C)(C)N1 [Compound I-391]
67 | 657 | CN1CCN(c2ccc(Nc3ncc([N+](=O)[O-])c(NC4CC(C)(C)N(C)C(C)(C)C4)n3)cc2C(F)(F)F)CC1 [Compound I-74]
68 | 15300 | COc1cc(Nc2ncc(F)c(NC3CC(C)(C)N(C)C3(C)C)n2)cc(OC)c1OC (stereo not drawn) [Compound I-282, 5-Fluoro-N2-(3,4,5-trimethoxy)phenyl-N4-(1,2,2,5,5-pentamethylpyrrolidin-3-yl)-2,4-pyrimidinediamine]

Row | Compound | IC50 [nM]
69 | CN1CCN(c2ccc(Nc3ncc(F)c(N(C)C4CC(C)(C)N(C)C(C)(C)C4)n3)cc2C(F)(F)F)CC1 [Compound I-59] | 911
